Laboratory results from US9243281B2, “Neuroprotective chemicals and methods for identifying and using same” (Board of Regents of The University of Texas System, priority 2013, dated 2016).

Tests used:
[1] = system: hippocampal neurogenesis (Dentate Gyrus); experiment: in vivo neurogenesis assay (BrdU+ cells in dentate gyrus); parameters: species or system mice; conditions: living mice; vehicle (DMSO) 7.3
Excerpt: The screen was simple in concept. With help from chemists in the Department of Biochemistry at UTSWMC, we selected 1,000 druglike chemicals from the 250,000 compounds in our high throughput screening center. The compounds were selected to preserve representative chemical diversity of the entire library. They were further selected to enhance the representation of chiral molecules, and to avoid untoward chemical properties such as reactive moieties. The 1,000 molecules were randomly pooled into groups of ten, and each pool was administered directly into the left ventricle of two adult mice. Intracranial delivery was facilitated by stereotactic positioning of a canula fed directly by an Alzet mini-pump containing the mixture of ten chemicals. The drug mixture was administered over a week-long period at concentrations anticipated to deliver mid-nanomolar levels of the ten test compounds. Daily injections of the thymidine analog, bromodeoxyuridine (BrdU), were coadministered in order to monitor the formation of new hippocampal nerve cells. Following compound administration, animals were sacrificed such that brain tissue could be recovered, sectioned and stained with antibodies to BrdU. […]

p70 (NAMPT) = target: T1, p70 (NAMPT) (Homo sapiens, UniProt P43490); experiment: binding competition for photo-crosslinking of P7C3-S326 to p70 in H2122 cells; conditions: 0.3 μM P7C3-S326 plus 5 μM competitor, p70 band intensity, P7C3-S326 alone compared with plus competitor, vehicle 1.0
T1 construct: endogenous in cells; host or cells: H2122 lung cancer cells
T1 sequence (P43490 whole entry): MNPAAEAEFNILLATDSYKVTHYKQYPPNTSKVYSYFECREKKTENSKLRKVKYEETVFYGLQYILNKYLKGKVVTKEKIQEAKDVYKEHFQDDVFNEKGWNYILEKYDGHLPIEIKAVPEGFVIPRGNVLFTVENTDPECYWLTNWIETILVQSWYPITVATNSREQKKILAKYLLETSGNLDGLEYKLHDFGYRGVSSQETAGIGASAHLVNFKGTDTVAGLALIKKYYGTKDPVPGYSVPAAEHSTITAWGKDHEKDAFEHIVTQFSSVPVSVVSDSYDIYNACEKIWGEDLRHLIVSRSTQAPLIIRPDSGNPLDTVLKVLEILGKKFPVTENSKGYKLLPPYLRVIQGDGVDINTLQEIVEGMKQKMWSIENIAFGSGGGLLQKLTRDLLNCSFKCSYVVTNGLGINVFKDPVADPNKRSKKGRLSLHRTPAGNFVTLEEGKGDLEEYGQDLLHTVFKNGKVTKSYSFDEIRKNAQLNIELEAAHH
Description: Cultured cells were co-exposed to P7C3-S326 (0.3 uM) and the individual P7C3 variants (5 uM), exposed to UV light, lysed, clicked to a fluorescent dye and run on SDS gels (FIG. 11).
P7C3-S326 was diluted to 0.3 μM in culture medium to treat H2122 cells. After incubation at 37° C. for 2 hours, H2122 cells were irradiated for 15 minutes under 306 nm ultraviolet light in a Stratalinker 2400 (Stratagene). Cells were then harvested by dissolving in 1% SDS lysis buffer 50 mM HEPES, pH 8.0, 2 mM MgCl2, 10 mM KCl, 1% SDS, 50 units/ml of Benzonase (Sigma), supplemented with Sigmafast protease inhibitor (Sigma).
The reaction was incubated at room temperature with constant agitation at 1,000 rpm on a thermomixer (Eppendorf) for 1 hour. Samples were then mixed with SDS sample loading buffer and loaded on an 8% SDS-PAGE gel, separated, and imaged using a Typhoon imager (filter settings: excitation 533 nm, emission 555 nm, and high sensitivity).
H2122 cells were incubated with the P7C3-S326 (0.3 μM) in the absence or presence of P7C3 analogs for 2 hours following by UV crosslinking. […] The samples were run on SDS-PAGE gels scanned using a Typhoon Imager. The p70 band intensity was analyzed and quantified by Image J, and the relative intensity in each assay was normalized to that of the DMSO control.

Structure (SMILES) | Neurogenesis # BrdU+ Cells (X10E06)/mm3 Dentate Gyrus [1] | Binding competition (p70 (NAMPT))
Cc1ccc2[nH]c3ccc(C)cc3c2c1 [S237] | 11.8 (X10E06)/mm3 | 1.5
OC(CNc1ccccn1)Cn1c2ccc(Br)cc2c2cc(Br)ccc21 (stereo not drawn) [S38] | 13.7 (X10E06)/mm3 | 4.2
CN(C)C[C@@H](O)CN1c2ccccc2CCc2ccccc21 [S182] | 6.8 (X10E06)/mm3 | 1.1
Brc1ccc2[nH]c3ccccc3c2c1 [S236] | 12.3 (X10E06)/mm3 | 1.7
OCCCc1cn(CC(O)Cn2c3ccc(Br)cc3c3cc(Br)ccc32)nn1 (stereo not drawn) [S23] | 7.4 (X10E06)/mm3 | 2.1
OC(CN1c2ccccc2CCc2ccccc21)Cn1c2ccccc2c2ccccc21 (stereo not drawn) [S133] | 10.1 (X10E06)/mm3 | 1.2
COc1cccc(NCC(C)(O)Cn2c3ccc(Br)cc3c3cc(Br)ccc32)c1 (stereo not drawn) [S54] | 16.7 (X10E06)/mm3 | 3.8
NC(=O)c1ccc2c(c1)c1cc(Br)ccc1n2CC(=O)O [S238] | 9.4 (X10E06)/mm3 | 0.9
CCOC(=O)c1cc2c3cc(Br)ccc3n(CC(O)COc3ccccc3)c2cn1 (stereo not drawn) [S174] | 9.3 (X10E06)/mm3 | 1.8
OC(Cn1c2ccc(Br)cc2c2cc(Br)ccc21)Cn1c2ccc(Br)cc2c2cc(Br)ccc21 [S34] | 7.6 (X10E06)/mm3 | 1.0
CC(C)(C)OC(=O)CCOCCOCCOCCOc1cccc(NCC(O)Cn2c3ccc(Br)cc3c3cc(Br)ccc32)c1 (stereo not drawn) [S157] | 10.2 (X10E06)/mm3 | 1.5
COc1cccc(NCC(O)Cn2c3ccc(Br)cc3c3cc(Br)ccc32)n1 (stereo not drawn) [S188] | 13.1 (X10E06)/mm3 | 3.1
N#Cc1ccc2c(c1)c1cc(C#N)ccc1n2CC(O)CSc1ccccc1 (stereo not drawn) [S110] | 10.5 (X10E06)/mm3 | 6.2
OC(Cn1ccc2ccccc21)Cn1c2ccc(Br)cc2c2cc(Br)ccc21 (stereo not drawn) [S22] | 6.7 (X10E06)/mm3 | 2.7
O=S(=O)(C[C@H](O)Cn1c2ccc(Br)cc2c2cc(Br)ccc21)c1ccccc1 [S51] | 13.2 (X10E06)/mm3 | 2.4
OCc1cc2c(cn1)[nH]c1ccc(Br)cc12 [S204] | 14.2 (X10E06)/mm3 | 2.3
OC(COc1ccccc1)Cn1c2ccc(Br)cc2c2ncccc21 (stereo not drawn) [S194] | 8.1 (X10E06)/mm3 | 5.1
O=c1ccccn1CC(O)Cn1c2ccc(Br)cc2c2cc(Br)ccc21 (stereo not drawn) [S137] | 12.2 (X10E06)/mm3 | 4.5
OC(CCc1ccccc1)Cn1c2ccc(Br)cc2c2cc(Br)ccc21 (stereo not drawn) [S21] | 8.8 (X10E06)/mm3 | 2.3
Nc1cccc(SCC(O)Cn2c3ccc(Br)cc3c3cc(Br)ccc32)c1 (stereo not drawn) [S95] | 8.6 (X10E06)/mm3 | 4.6
COc1cccc(NCC(O)Cn2c3ccc(C)cc3c3cc(Br)ccc32)c1 (stereo not drawn) [S14] | 13.5 (X10E06)/mm3 | 4.5
COc1cccc(NCC(O)Cn2c3ccc(Br)cc3c3cc(N=[N+]=[N-])ccc32)c1 (stereo not drawn) [S47] | 10.1 (X10E06)/mm3 | 5.5
COc1cccc(NCC(O)Cn2c3ccc(Cl)cc3c3cc(Cl)ccc32)c1 (stereo not drawn) [S15] | 7.6 (X10E06)/mm3 | 5.3
CCC(C)N(C)C(=O)c1cc2ccccc2c(-c2ccccc2Cl)n1 (stereo not drawn) [S200, PK11195, reference compound] | 11.1 (X10E06)/mm3 | 1.3
